In PubChem BioAssay AID651880 (NMMLSC, 2012):
Active and inactive are the calls of the source. The rule behind the calls is not given here.

molecular target: Botulinum neurotoxin type F light chain protease (Clostridium botulinum); assay: Botulinum neurotoxin F protease inhibition, flow cytometry cleavage assay, confirmatory dose response (AID 651880); conditions: multiplex microsphere flow cytometry protease cleavage assay

| Compound | EC50 |
| --- | --- |
| CNC(=O)c1ccc(N2N=C(c3ccccc3)CC2c2ccccc2)cc1 (centres undefined) | > 20 µM (inactive) |
| O=C(c1ccc(N2N=C(c3ccccc3)CC2c2ccccc2)cc1)N1CCOCC1 (centres undefined) | > 20 µM (inactive) |
| CS(=O)(=O)c1ccc(N2N=C(c3cccnc3)CC2c2ccccc2)cc1 (centres undefined) | > 20 µM (inactive) |
| COc1ccc(N2N=C(c3ccccc3)CC2c2ccccc2)cc1 (centres undefined) | > 20 µM (inactive) |
| COc1ccc(N2N=C(c3ccncc3)CC2c2ccccc2)cc1 (centres undefined) | > 20 µM (inactive) |
| CSc1ccc(C2=NN(c3ccccc3)C(c3ccccc3)C2)cc1 (centres undefined) | > 20 µM (inactive) |
| NS(=O)(=O)c1ccc(N2N=C(c3ccccc3)CC2c2ccccc2)cc1 (centres undefined) | > 20 µM (inactive) |
| COc1ccc(N2N=C(c3ccc(SC)cc3)CC2c2ccccc2)cc1 (centres undefined) | > 20 µM (inactive) |
| NS(=O)(=O)c1ccc(N2N=C(c3cccnc3)CC2c2ccccc2)cc1 (centres undefined) | > 20 µM (inactive) |
| CS(=O)(=O)c1ccc(N2N=C(c3ccncc3)CC2c2ccccc2)cc1 (centres undefined) | > 20 µM (inactive) |
| NS(=O)(=O)c1ccc(N2N=C(c3ccncc3)CC2c2ccccc2)cc1 (centres undefined) | > 20 µM (inactive) |
| CC(C)CNC(=O)c1ccc(N2N=C(c3ccccc3)CC2c2ccccc2)cc1 (centres undefined) | > 20 µM (inactive) |
| CNC(=O)c1ccc(N2N=C(c3ccc(SC)cc3)CC2c2ccccc2)cc1 (centres undefined) | > 20 µM (inactive) |
| COc1ccc(N2N=C(c3ccccn3)CC2c2ccccc2)cc1 (centres undefined) | > 20 µM (inactive) |
| c1ccc(C2=NN(c3ccccc3)C(c3ccccc3)C2)cc1 (centres undefined) | > 20 µM (inactive) |
| CSc1ccc(C2=NN(c3ccc(S(C)(=O)=O)cc3)C(c3ccccc3)C2)cc1 (centres undefined) | > 20 µM (inactive) |
| CSc1ccc(C2=NN(c3ccc(S(N)(=O)=O)cc3)C(c3ccccc3)C2)cc1 (centres undefined) | > 20 µM (inactive) |
| CSc1ccc(C2=NN(c3ccc([N+](=O)[O-])cc3)C(c3ccccc3)C2)cc1 (centres undefined) | 0.05 µM |
| CSc1ccc(C2=NN(c3ccc(C(=O)N4CCCCC4)cc3)C(c3ccccc3)C2)cc1 (centres undefined) | > 20 µM (inactive) |
| O=C(c1ccc(N2N=C(c3ccccc3)CC2c2ccccc2)cc1)N1CCCCC1 (centres undefined) | > 20 µM (inactive) |
| CS(=O)(=O)c1ccc(N2N=C(c3ccccc3)CC2c2ccccc2)cc1 (centres undefined) | > 20 µM (inactive) |
| CSc1ccc(C2=NN(c3ccc(C(=O)N4CCOCC4)cc3)C(c3ccccc3)C2)cc1 (centres undefined) | > 20 µM (inactive) |
| c1ccc(-c2cc(-c3ccccc3)n(-c3ccccc3)n2)cc1 | > 20 µM (inactive) |
| c1ccc(C2CC(c3cccnc3)=NN2c2ccccc2)cc1 (centres undefined) | > 20 µM (inactive) |
| O=[N+]([O-])c1ccc(N2N=C(c3ccccc3)CC2c2ccccc2)cc1 (centres undefined) | 0.2 µM |
| CC(C)NC(=O)c1ccc(N2N=C(c3ccccc3)CC2c2ccccc2)cc1 (centres undefined) | > 20 µM (inactive) |
| c1ccc(C2CC(c3ccccn3)=NN2c2ccccc2)cc1 (centres undefined) | > 20 µM (inactive) |
| COc1ccc(N2N=C(c3cccnc3)CC2c2ccccc2)cc1 (centres undefined) | > 20 µM (inactive) |
| c1ccc(C2CC(c3ccncc3)=NN2c2ccccc2)cc1 (centres undefined) | > 20 µM (inactive) |
